# Measurements: patent US20260000655A1, “PHARMACEUTICAL COMPOSITION FOR USE IN PREVENTION OR TREATMENT OF LIFESTYLE-RELATED DISEASE” (priority 2022, published 2026)
# Tests used:
# [1] = test system: high-fat diet-induced obesity model mice; experiment: Glucose loading test in mouse; type: in vivo; conditions: HPH-15 10 mg/kg or 100 mg/kg orally, 28 days; glucose 0.5 g/kg intraperitoneally; compared to olive oil
# Experimental: The effect of HPH-15 on the change in blood glucose levels in the presence of glucose was examined using mice.
# High-fat diet-induced obesity model mice were prepared in the same manner as in Example 7. Then, HPH-15 (10 mg/kg or 100 mg/kg, […]) dissolved in olive oil or metformin (300 mg/kg, […]) was orally administered once a day for 28 days. Olive oil alone was administered as a control. After 28 days of administration of each, glucose was intraperitoneally administered (0.5 g/kg) to the high-fat diet-induced obesity model mice, and blood glucose levels (mg/dl) were measured at 0, 15, 30, 60, 90, and 120 minutes after administration using a blood glucose meter Glutest Aqua (Sanwa Kagaku Kenkyusho Co., Ltd.).
# [2] = Body weight during administration in mouse; type: in vivo; conditions: HPH-15 10 mg/kg or 100 mg/kg orally once a day for 28 days; high-fat diet
# Experimental: Four-week-old […] mice (CLEA Japan, Inc.) were fed a high-fat diet HFD (CLEA Japan, Inc.) for two months to prepare high-fat diet-induced obesity model mice. Then, HPH-15 (10 mg/kg or 100 mg/kg, […]) dissolved in olive oil (Kenei Pharmaceutical Co., Ltd.) or metformin (300 mg/kg, […]) was orally administered once a day for 28 days. Olive oil alone was administered as a control. Body weight, random blood glucose levels, and fasting blood glucose levels were measured every 7 days using a blood glucose meter Glutest Aqua (Sanwa Kagaku Kenkyusho Co., Ltd.). Fasting blood glucose levels were measured after 12-hour fasting. Note that, during the drug administration period, the mice were fed the high-fat diet HFD. The results of random blood glucose levels (mg/dl) are shown in FIG. 7A, and the results of fasting blood glucose levels (mg/dl) are shown in FIG. 7B.
# [3] = test system: GLUT4 (glucose transporter type 4); experiment: Promotion of GLUT4 membrane translocation in L6-GLUT4myc; type: cell-based, rat; conditions: HPH-15 10 μM (1/200th of metformin 2 mM; insulin 100 nM), 24 hours
# Experimental: GLUT4 (glucose transporter type 4) is involved in the uptake of glucose into cells. Thus, the relationship between HPH-15 and the membrane translocation of GLUT4 was examined using the myotube cell model L6-GLUT4myc.
# The myotube cell model L6-GLUT4myc cells used in Example 1 were seeded onto a 24-well plate (1×10^5 cells/well, […] of culture liquid) and cultured overnight. Then, a DMSO solution (1%) containing HPH-15 (final concentration: 10 μM), metformin (final concentration: 2 mM), or insulin (final concentration: 100 nM) was added to the medium, and the cells were further cultured for 24 hours. As a control, only DMSO solution (1%) was added, and the cells were cultured for 24 hours in the same manner. Next, each cell was fixed for 20 minutes with a 3% paraformaldehyde solution (Tokyo Chemical Industry Co., Ltd.). The reaction was stopped with an 1% glycine solution (Merck KGaA), and blocking was performed for 15 minutes using a PBS solution containing 5% goat serum (FUJIFILM Wako Pure Chemical Corp.). […] Detection was performed using OPD reagent (o-phenylenediamine dihydrochloride: FUJIFILM Wako Pure Chemical Corp.), and the amount of GLUT4 was evaluated by measuring absorbance (492 nm).
compound,measurement,setting,value
CC(C)(C)SCCNC(=S)c1cccc(C(=S)NCCSC(C)(C)C)n1 [HPH-15],"glucose metabolism (blood glucose levels, IAUC) after glucose loading",[1],significantly improved
same,changes in body weight during the test period,[2],no significant differences were observed
same,amount of GLUT4 localized in the membrane,[3],promoted membrane translocation of GLUT4 to the same extent as metformin or insulin
